{"source": "paper PMC5650372", "about": "(Oncotarget, 2017)", "key": {"[1]": {"tested_on": "pS6 S235/236 in NCI-H441 cells", "assay": "Western blot quantitation of pS6 S235/236 (mTORC1 biomarker)", "type": "cell-based", "details": "Homo sapiens; NCI-H441, presence of bleomycin, 2 hrs, n=3; read-out: IC50 of pS6 S235/236 inhibition"}, "NHEJ in Cal-51 cells": {"tested_on": "NHEJ in Cal-51 cells", "assay": "Cellular NHEJ assay with GFP reporter gene", "type": "cell-based, human", "details": "1 μM", "procedure": "(§1) deficient cell growth in vitro […]\n(§2) incorporated in the corresponding no inhibitor control mTOR, DNA-PK and PI3K-alpha assays were to determine percent inhibition. An IC50 value was then performed as reported previously. estimated.\n(§3) ATM and ATR assay and IC50 determination Cellular NHEJ assay\n(§4) HA-ATM and FLAG-ATR (HA-labeled ATM, and The experimental design is illustrated in FLAG-labeled ATR) were each transiently expressed in Supplementary Figure 4. Cal-51 breast cancer cells HEK293 cells (293FT cells, Invitrogen Cat: R700-07) were separately transfected with pEGFP plasmid (6085-using Lipofectamine as transfection reagent. Cells were 1, Clontech, Mountain View, CA) digested with either harvested 6 days post transfection and spun down to EcoRI (to measure NHEJ) or StuI (to measure transfection separate cells from media. Cells were then lysed using a efficiency) using a Amaxa cell line nuclearfector kit V lysis buffer (50 mM Tris buffer, (Tris(hydroxylmethyl)- (CCA-1003, Lonza). Immediately after the transfection, aminomethane, pH 7.5), 100 mM NaCl, 50 mM βGOP, the cells were treated with DMSO or compounds at 10% Glycerol, 0.5% Tween 20, 1 mM EDTA, 25 mM indicated concentrations for 24 hours and GFP-positive sodium fluoride (NaF), 20 nM microcystine, 2 mM cells were counted under a fluorescent microscope. […]"}, "[2]": {"tested_on": "pAKT S473 in NCI-H441 cells", "assay": "Western blot quantitation of pAKT S473 (mTORC2 biomarker)", "type": "cell-based", "details": "Homo sapiens; NCI-H441, presence of bleomycin, 2 hrs, n=3; read-out: IC50 of pAKT S473 inhibition"}, "pATM S1981": {"tested_on": "pATM S1981", "assay": "Western blot of cell-free NHEJ reaction (MCF7 nuclear extract)", "type": "biochemical, human", "details": "MCF7 nuclear extract with linear dsDNA", "procedure": "(§5) Nuclear protein (10-20 μg) prepared above was pre-treated with compounds as indicated on ice for 15 minutes. Twenty-five nanograms of EcoRI-digested pBluescript DNA (Stratagene, La Jolla, CA) were then added and the mixture was adjusted to 20 μL final volume in NHEJ buffer (50 mM Hepes-KOH pH 8.0, 40 mM KOAc, 1 mM Mg(OAc)2, 1 mM ATP, 0.1 mg/mL BSA, and 1 mM DTT). After incubation at 25°C for 60 minutes, the reaction was terminated by incubation with 1 μg/mL RNase A for 10 minutes followed by treatment with 2 mg/mL Protease K in 0.5% SDS at 55°C for 30 minutes. The reactions were run onto 0.8% agarose and the gel was stained with Sybr Green (S756, Invitrogen, Carlsbad, CA). For Western blots, an aliquot of the same reaction mixture described above was subjected to SDS-PAGE, transferred to the PVDF membrane, and immunoblotted with indicated antibodies."}, "pDNA-PK S2056": {"tested_on": "pDNA-PK S2056", "assay": "Western blot of cell-free NHEJ reaction (MCF7 nuclear extract)", "type": "biochemical, human", "procedure": "as §5"}, "pChk2 T68": {"tested_on": "pChk2 T68", "assay": "Western blot of cell-free NHEJ reaction (MCF7 nuclear extract)", "type": "biochemical, human", "details": "MCF7 nuclear extract, 0.05, 0.5 or 5 μM", "procedure": "as §5"}, "[3]": {"tested_on": "pATM S1981 and pNbs1 S343 in HT29 and MDA-MB-436 cells", "assay": "Immunoblotting of intact cells with bleomycin", "type": "cell-based, human", "details": "5 μM with 1.5 mU/mL bleomycin, 2 or 12 hours"}, "[4]": {"tested_on": "NCI-H1975 and SW1573 cells", "assay": "Clonogenic assay alone or with etoposide", "type": "cell-based, human", "procedure": "Media were changed every three days. Plates were incubated for a total of about two weeks then fixed and stained using the DIFF QUIK staining kit. Colonies were imaged and counted."}, "[5]": {"tested_on": "panel of 123 cancer cell lines", "assay": "Proliferation assay, whole panel", "type": "cell-based", "details": "Homo sapiens; range over 123 cell lines; read-out: GI50 values across the cancer cell line panel", "procedure": "Proliferation assays were performed as previously described. […] The concentration of compound required for a 2-fold induction of Caspase was determined (CalX)."}, "[6]": {"tested_on": "NHEJ in intact cells of different cell lines", "assay": "Cellular NHEJ assay, summary over cell lines", "type": "cell-based", "details": "Homo sapiens; range over different cell lines (Table 1); read-out: potency against NHEJ in intact cells", "procedure": "as §1, §2, §3, §4"}, "NHEJ activity": {"tested_on": "NHEJ activity", "assay": "Reconstituted cell-free NHEJ assay (MCF7 nuclear extract)", "type": "biochemical, human", "procedure": "MCF7 human breast cancer cells (5-10 x 10^7 each) were incubated in 5 pellet volumes of cold hypotonic buffer (10 mM Hepes-KOH, pH 7.5, 1.5 mM MgCl2, 5 mM KCl, and 0.5 mM DTT) for 20 minutes and were homogenized in a tight-fitting glass dounce homogenizer for 10-20 strokes. The nuclei were then collected by low-speed centrifugation and nuclear proteins were extracted by high-salt buffer (50 mM Tris-HCl, pH 7.5, 1 M KCl, 2 mM EDTA, 1 mM DTT, and protease inhibitors). The extracted nuclear proteins were dialyzed against 1 L of dialysis buffer (20 mM Tris-HCl, pH 8.0, 20% glycerol, 0.1 M KOAc, 0.5 mM EDTA, and 1 mM DTT) for 1 hour and were used for the in vitro NHEJ assay.\nas §5"}}}
{"smiles": "CCN1C(=O)CNc2ncc(-c3ccc(-c4nc[nH]n4)nc3C)nc21", "note": "[CC-115, 1-ethyl-7-(2-methyl-6-(1H-1,2,4-triazol-3-yl)pyridin-3yl)-3,4-dihydropyrazino[2,3-b]pyrazin-2(1H)-one]", "values": [{"measurement": "IC50", "setting": "[1]", "value": "160 ± 10", "unit": "nM"}, {"measurement": "GFP-positive cells (pEGFP-EcoRI)", "setting": "NHEJ in Cal-51 cells", "value": 1.25, "unit": "%"}, {"measurement": "GFP-positive cells (pEGFP-StuI)", "setting": "NHEJ in Cal-51 cells; DMSO 25.71%", "value": 10.47, "unit": "%"}, {"measurement": "IC50", "setting": "[2]", "value": "136 ± 62", "unit": "nM"}, {"measurement": "inhibition of pATM S1981, cell-free", "setting": "pATM S1981", "value": "reduction"}, {"measurement": "inhibition of pDNA-PK S2056, cell-free", "setting": "pDNA-PK S2056", "value": "inhibited"}, {"measurement": "inhibition of pChk2 T68, cell-free", "setting": "pChk2 T68", "value": "also inhibited"}, {"measurement": "ATM activity (pATM S1981 and pNbs1 S343)", "setting": "[3]", "value": "significantly inhibited"}, {"measurement": "combination with 6.8 μM etoposide on colony formation greater than additive", "setting": "[4]; 0.1 μM compound, 4 hours", "value": "not"}, {"measurement": "combination with 6.8 μM etoposide on colony formation", "setting": "[4]; 10 μM compound, 4 hours", "value": "synergistic effect"}, {"measurement": "effect on cell survival, single agent", "setting": "[4]; 4 hours treatment alone", "value": "minimal effect on cell survival"}, {"measurement": "GI50", "setting": "[5]", "value": "15 to 1770", "unit": "nM"}, {"measurement": "IC50", "setting": "[6]", "value": "1000 to 7000", "unit": "nM"}, {"measurement": "inhibition of NHEJ activity, cell-free", "setting": "NHEJ activity; 0.5 μM", "value": "Partial inhibition"}, {"measurement": "inhibition of NHEJ activity, cell-free", "setting": "NHEJ activity; 5 μM", "value": "complete inhibition"}]}
